Test system: K-562 leukemia growth, % test/control
Test: Anticancer human tumor K-562 cell line growth inhibition;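 also: spheroids exposed to compounds for 7 days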;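 as to viability, T/C: 100% = DMSO vehicle wells and lower values mean fewer viable cells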
Details: spheroids with HUVEC and MSC; for IC50: curve of first compound; for viability, T/C: stronger effect = lower value
Summary of the method: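 Complex spheroids of tumor cells with HUVEC and human MSCs, exposed to iadademstat combined with other agents. Each agent tested in half-log steps from near clinical Cmax (else 10 microM top), DMSO ≤0.25%.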

Nc1ccccc1NC(=O)c1ccc(CNC(=O)OCc2cccnc2)cc1 + NC1CC1c1ccc(-c2cccc(O)c2)cc1
IC50 (second compound 0.1 µM): 180 nM | IC50 (second compound 0.316 µM): 173 nM | IC50 (second compound 1 µM): 165 nM | IC50 (second compound 3.16 µM): 152 nM | IC50 (second compound 10 µM): 121 nM | viability, T/C (second compound 0.1 µM, first compound 0.00949 µM): 114% | viability, T/C (second compound 0.1 µM, first compound 0.03 µM): 111% | viability, T/C (second compound 0.1 µM, first compound 0.0949 µM): 103% | viability, T/C (second compound 0.1 µM, first compound 0.3 µM): 7.04% | viability, T/C (second compound 0.1 µM, first compound 0.949 µM): 0.24% | viability, T/C (second compound 0.1 µM, first compound 3 µM): 1.31% | viability, T/C (second compound 0.316 µM, first compound 0.00949 µM): 114% | viability, T/C (second compound 0.316 µM, first compound 0.03 µM): 109% | viability, T/C (second compound 0.316 µM, first compound 0.0949 µM): 97.1% | viability, T/C (second compound 0.316 µM, first compound 0.3 µM): 6.48% | viability, T/C (second compound 0.316 µM, first compound 0.949 µM): 0.2% | viability, T/C (second compound 0.316 µM, first compound 3 µM): 0.13% | viability, T/C (second compound 1 µM, first compound 0.00949 µM): 111% | viability, T/C (second compound 1 µM, first compound 0.03 µM): 110% | viability, T/C (second compound 1 µM, first compound 0.0949 µM): 92% | viability, T/C (second compound 1 µM, first compound 0.3 µM): 5.06% | viability, T/C (second compound 1 µM, first compound 0.949 µM): 0.25% | viability, T/C (second compound 1 µM, first compound 3 µM): 0.13% | viability, T/C (second compound 3.16 µM, first compound 0.00949 µM): 111% | viability, T/C (second compound 3.16 µM, first compound 0.03 µM): 111% | viability, T/C (second compound 3.16 µM, first compound 0.0949 µM): 81.3% | viability, T/C (second compound 3.16 µM, first compound 0.3 µM): 4.61% | viability, T/C (second compound 3.16 µM, first compound 0.949 µM): 0.18% | viability, T/C (second compound 3.16 µM, first compound 3 µM): 1.02% | viability, T/C (second compound 10 µM, first compound 0.00949 µM): 104% | viability, T/C (second compound 10 µM, first compound 0.03 µM): 98.5% | viability, T/C (second compound 10 µM, first compound 0.0949 µM): 62.6% | viability, T/C (second compound 10 µM, first compound 0.3 µM): 3.34% | viability, T/C (second compound 10 µM, first compound 0.949 µM): 0.19% | viability, T/C (second compound 10 µM, first compound 3 µM): 1.28%

O=C(c1cc(Cc2n[nH]c(=O)c3ccccc23)ccc1F)N1CCN(C(=O)C2CC2)CC1 + NC1CC1c1ccc(-c2cccc(O)c2)cc1
IC50 (second compound 0.1 µM): 9600 nM | IC50 (second compound 0.316 µM): 9550 nM | IC50 (second compound 1 µM): > 10000 nM | IC50 (second compound 3.16 µM): > 10000 nM | IC50 (second compound 10 µM): 8390 nM | viability, T/C (second compound 0.1 µM, first compound 0.0316 µM): 111% | viability, T/C (second compound 0.1 µM, first compound 0.1 µM): 108% | viability, T/C (second compound 0.1 µM, first compound 0.316 µM): 108% | viability, T/C (second compound 0.1 µM, first compound 1 µM): 106% | viability, T/C (second compound 0.1 µM, first compound 3.16 µM): 94.3% | viability, T/C (second compound 0.1 µM, first compound 10 µM): 48.4% | viability, T/C (second compound 0.316 µM, first compound 0.0316 µM): 107% | viability, T/C (second compound 0.316 µM, first compound 0.1 µM): 103% | viability, T/C (second compound 0.316 µM, first compound 0.316 µM): 102% | viability, T/C (second compound 0.316 µM, first compound 1 µM): 101% | viability, T/C (second compound 0.316 µM, first compound 3.16 µM): 90.2% | viability, T/C (second compound 0.316 µM, first compound 10 µM): 47.9% | viability, T/C (second compound 1 µM, first compound 0.0316 µM): 98% | viability, T/C (second compound 1 µM, first compound 0.1 µM): 100% | viability, T/C (second compound 1 µM, first compound 0.316 µM): 102% | viability, T/C (second compound 1 µM, first compound 1 µM): 98.8% | viability, T/C (second compound 1 µM, first compound 3.16 µM): 89.9% | viability, T/C (second compound 1 µM, first compound 10 µM): 50.1% | viability, T/C (second compound 3.16 µM, first compound 0.0316 µM): 104% | viability, T/C (second compound 3.16 µM, first compound 0.1 µM): 101% | viability, T/C (second compound 3.16 µM, first compound 0.316 µM): 100% | viability, T/C (second compound 3.16 µM, first compound 1 µM): 96.9% | viability, T/C (second compound 3.16 µM, first compound 3.16 µM): 87.8% | viability, T/C (second compound 3.16 µM, first compound 10 µM): 51.2% | viability, T/C (second compound 10 µM, first compound 0.0316 µM): 100% | viability, T/C (second compound 10 µM, first compound 0.1 µM): 99.8% | viability, T/C (second compound 10 µM, first compound 0.316 µM): 101% | viability, T/C (second compound 10 µM, first compound 1 µM): 96% | viability, T/C (second compound 10 µM, first compound 3.16 µM): 79.2% | viability, T/C (second compound 10 µM, first compound 10 µM): 44.7%

From PubChem BioAssay AID1918948 (Molecular Pharmacology Branch, DTP, NCI, 2023)
